Values quoted from earlier work as cited in US20070098469A1, “Fixing apparatus for nonheat fixing system, and image forming apparatus having fixing apparatus” (priority 2005, published 2007).

Settings: in vivo

Question: With `CCCCOC(=O)CCCCCCCCC(=O)OCCCC` [Di-n-butyle sebacate] as the compound, how does the LD50 read?
Answer: Its LD50 is 14900 mg/kg.

Question: For `CCOCCOC(=O)CCC(=O)OCCOCC` [Diethoxyethyl succinate], which LD50 is on record?
Answer: The LD50 was 5000 mg/kg.

Question: Which LD50 does the source give for `CC(C)COC(=O)CCCCC(=O)OCC(C)C` [Diisobutyl adipate] here?
Answer: Its LD50 is 12300 mg/kg.

Question: Which LD50 does the source give for `CCO` [Ethanol] here?
Answer: Its LD50 is 20000 mg/kg.
